In ChEMBL document CHEMBL4627391, “Bioactive Compounds from the Aerial Parts of Evolvulus linarioides” (J Nat Prod, 2020):

Tests used:
J774 [1] = assay: Antiinflammatory activity in mouse J774 cells assessed as inhibition of LPS/IFNgamma-induced NO production incubated for 24 hrs by Griess method; type: functional, cell-based; settings: J774, 24 h
J774 [2] = assay: Antiinflammatory activity in mouse J774 cells assessed as inhibition of LPS/IFNgamma-induced IL-1beta level at 10 uM incubated for 24 hrs by ELISA relative to control; type: functional; settings: J774, 24 h
[3] = Cytotoxicity against mouse J774 cells assessed as reduction in cell viability after 72 hrs by Alamar Blue assay; type: cell-based
J774 [4] = assay: Antiinflammatory activity in mouse J774 cells assessed as LPS/IFNgamma-induced IL-1beta level at 6.3 uM incubated for 24 hrs by ELISA (reference value: 9.6 to 26.1 pg/mg); type: functional
J774 [5] = assay: Antiinflammatory activity in mouse J774 cells assessed as LPS/IFNgamma-induced IL-1beta level at 100 uM incubated for 24 hrs by ELISA (reference value: 9.6 to 26.1 pg/mg); type: functional
J774 [6] = assay: Antiinflammatory activity in mouse J774 cells assessed as LPS/IFNgamma-induced IL-1beta level at 25 uM incubated for 24 hrs by ELISA (reference value: 9.6 to 26.1 pg/mg); type: functional
J774 [7] = assay: Antiinflammatory activity in mouse J774 cells assessed as inhibition of LPS/IFNgamma-induced IL-1beta level incubated for 24 hrs by ELISA relative to control; type: functional

SMILES | IC50 (J774 [1]) [µM] | inhibition at 10 µM (J774 [2]) [%] | CC50 at 72 h [3] [µM] | Activity (J774 [4]) [pg/mg] | Activity (J774 [5]) [pg/mg] | Activity (J774 [6]) [pg/mg] | Imax (J774 [7]) [%]
C[C@@H]1C[C@H]2[C@@H]3CCC4=CC(=O)C=C[C@]4(C)[C@@]3(F)[C@@H](O)C[C@]2(C)[C@@]1(O)C(=O)CO [DEXAMETHASONE] | 5.2 | 87.1 | – | – | – | – | –
C/C=C(/C)C(=O)OCC(O)(COC(=O)/C(C)=C\C)[C@H](OC(=O)/C(C)=C\C)[C@@H](COC(C)=O)OC(C)=O (some centres not stated) | 28.2 | – | 198 | 7.3 | 1.1 | 9.3 | 88.5
CC[C@@H](CO)C(=O)OC[C@@H]1O[C@H](OCc2cc(=O)c3c(O)cc(O)cc3o2)[C@@H](O)[C@H](O)[C@H]1O | 25.3 | – | 209 | 8.4 | 0.3 | 8.6 | 96.2
C=C1CC[C@@H]2[C@H](CC2(C)C)[C@@](O)(CO)CC[C@@H]1O | 17.8 | – | 193 | 14.3 | 0.7 | 7 | 93
Cc1cc(=O)c2c(O)cc(O[C@@H]3O[C@H](CO)[C@@H](O)[C@H](O)[C@H]3O)cc2o1 [UNDULATOSIDE A] | 51.2 | – | 191 | 14.5 | 1.5 | 9.5 | 89.6
C/C=C(/C)C(=O)OC[C@@H](OC(C)=O)[C@@H](OC(=O)/C(C)=C\C)C(O)(COC(=O)/C(C)=C\C)COC(=O)/C(C)=C\C | 34.2 | – | 206 | 15.6 | 3.8 | 14.6 | 80.6
C/C1=C/C[C@@H]2[C@H](CC2(C)C)[C@@](O)(CO)CC[C@@H]1O | 30.3 | – | 194 | 28.6 | 1.5 | 14 | 92.5
CC(=O)OC[C@@]1(O)CC[C@H]2O[C@@]2(C)CC[C@@H]2[C@@H]1CC2(C)C | 52.2 | – | 273 | 10.2 | 2.4 | 6.5 | 75
CN(C)c1ccc(C(=C2C=CC(=[N+](C)C)C=C2)c2ccc(N(C)C)cc2)cc1 [GENTIAN VIOLET] | – | – | 0.8 | – | – | – | –
O=c1cc(CO[C@@H]2O[C@H](CO)[C@@H](O)[C@H](O)[C@H]2O)oc2cc(O)cc(O)c12 [MONNIERISIDE A] | 66.3 | – | 201 | 14.6 | 2 | 9.1 | 85.5
O=c1cc(CO)oc2cc(O)cc(O)c12 [CNIDIMOL C] | 22.4 | – | 256 | 15.7 | 3.9 | 10.5 | 72.7
